Where a name gives a salt, the structure may show the parent alone. Read-outs that look alike come from different tables or passages of the source.
Assays:
[1] = Excipient compatibility, solid mixes sucrose:crospovidone:flunarizine salt 94:5:1 stored at 60 degrees C.; format: physicochemical; details: sucrose:crospovidone:salt 94:5:1 (weight %), wetted and dried, seal crimped, stored at 60 degrees C. for 2 weeks
Protocol: Two solid mixes, one containing sucrose:crospovidone:flunarizine dihydrochloride 94:5:1 (weight %), and the other containing sucrose:crospovidone:flunarizine benzoate 94:5:1 (weight %), were prepared in mortars, transferred to separate vials and a small amount of water was added until a very viscous syrup was formed. The samples were left to air dry at room temperature for two days followed by one day under vacuum at 40 degrees C. After the processing was finished, pictures of the samples were taken. Vials with identical content to the ones pictured were seal crimped and stored at 60 degrees C. for 2 weeks. After this period, their pictures were taken.

[2] = format: physicochemical
Text: Dynamic vapor sorption (DVS) analysis was completed on flunarizine benzoate from about 0 to about 95 percent relative humidity at about 25 degrees C. (See FIG. 5). […] This is characteristic of a nonhygroscopic material.
Dynamic vapor sorption (DVS) analysis was completed on flunarizine fumarate from about 0 to about 95 percent relative humidity at about 25 degrees C. (See FIG. 9). […] This is characteristic of a nonhygroscopic material.
Flunarizine dihydrochloride is hygroscopic. The dihydrochloride salt rapidly adsorbs water (greater than 7 percent change in mass) at relative humidity levels above about 60 percent. The release of the adsorbed water is difficult upon desorption. In comparison, the flunarizine benzoate salt of the present invention adsorbs relatively little water (less than 1 percent change in mass) at relative humidity levels up to about 95 percent.

Row | Molecule | degradation in excipient mix (comparison of images) [1] | stability over relative humidity (DVS) [2] | hygroscopicity (DVS) ([2]; about 25 degrees C.) | water adsorption, change in mass ([2]; relative humidity levels up to about 95 percent) | release of the adsorbed water upon desorption ([2]; DVS desorption, about 25 degrees C.) | water adsorption, change in mass ([2]; relative humidity levels above about 60 percent, about 25 degrees C.)
1 | Fc1ccc(C(c2ccc(F)cc2)N2CCN(CC=Cc3ccccc3)CC2)cc1.O=C(O)c1ccccc1 [flunarizine benzoate, 1-cinnamyl-4-(di-p-fluorobenzhydryl)piperazine benzoate] | substantially more degradation had occurred in the mixes containing flunarizine dihydrochloride than those containing flunarizine benzoate | stable from about 0% to about 95% relative humidity | nonhygroscopic | less than 1% | – | –
2 | Fc1ccc(C(c2ccc(F)cc2)N2CCN(C/C=C/c3ccccc3)CC2)cc1 [flunarizine dihydrochloride, reference compound] | substantially more degradation | – | hygroscopic | – | difficult | greater than 7%
3 | 1-cinnamyl-4-(di-p-fluorobenzhydryl)piperazine fumarate [flunarizine fumarate] | – | stable from about 0% to about 95% relative humidity | nonhygroscopic | – | – | –
